Data as given in patent publication EP4755890A1, “OXO-TRICYCLIC DERIVATIVE AND PHARMACEUTICAL USE THEREOF” (Haisco Pharmaceutical Group Co., Ltd., priority 2023, dated 2025).

Columns and labels:
[1] = biological target: T1, WRN protein (AA N517-P1238, ICE, Cat. S2212T-H56HZ) (Homo sapiens, UniProt Q14191); experiment: Assay for WRN helicase activity (FORKF dsDNA unwinding, fluorescence); type: biochemical; conditions: inhibition of WRN helicase activity; 10 nM WRN, 10 nM FORKF, 2 mM ATP
T1 construct: WRN protein (AA N517-P1238, ICE, Cat. S2212T-H56HZ); purchased ICE S2212T-H56HZ
Description: The assay buffer working solution prepared with RNAase-free water was as follows: 25 mM Tris (pH 7.5), 2 mM MgCl2, 50 mM NaCl, 0.02% BSA, 0.01% Tween, and 1 mM DTT. WRN protein (AA N517-P1238, ICE, Cat. S2212T-H56HZ) was obtained through protein expression and purification in vitro. Two single-stranded DNAs were synthesized: […]-BHQ2 (quencher), and (fluorophore) TAMRA-[…]. dsDNA (FORKF) was obtained via annealing of the two single-stranded DNAs. When the WRN protein bound to FORKF, the dsDNA was unwound, exposing the fluorophore, thereby generating fluorescence. 2 µL of compounds at different concentrations and 4 µL of WRN protein were added to a 384-well black plate (Greiner, Cat#784075). The plate was pre-incubated at room temperature for 20 minutes. 2 µL each of ATP and the FORKF substrate were added. The working concentrations of the WRN protein, FORKF, and ATP were 10 nM, 10 nM, and 2 mM, respectively. The plate was incubated at room temperature for 20 minutes. After the incubation was completed, the fluorescence value was read at Ex 540 nm/Em 590 nm using a BMG microplate reader (PHERAstar FSX).
(§1) The inhibition rate was calculated according to Formula 2, where RLUsample is the readout of the compound well, RLUmax is the readout of the DMSO control well, and RLUmin is the readout of the control well without the WRN protein. Curve fitting was performed via a four-parameter logistic model using GraphPad Prism software, and the IC50 value (the concentration of the compound when the inhibition rate was 50%) was calculated. Inhibition% = (1−(RLUsample−RLUmin)/(RLUmax−RLUmin)) × 100% [formula] Table 2. Results of inhibitory activity of test compounds against WRN helicase activity

SW48 cells = experiment: SW48 cell proliferation inhibition assay (CellTiter-Glo); type: cell-based; conditions: Homo sapiens, 96 h, 4 days, read-out: Inhibitory activity against SW48 cell proliferation IC50
Description: (§2) The culture conditions for SW48 cells were as follows: Leibovitz L15 + 10% FBS + 1% penicillin-streptomycin, and the cells were cultured in an incubator without CO2 at 37°C. On the first day, the SW48 cells in the exponential growth phase were collected and plated in 96-well cell culture plates at a density of 1000 cells/well (180 µL/well). The plates were cultured overnight in an incubator without CO2 at 37°C. T0 wells were plated simultaneously during the plating process. The next day, 20 µL of compounds at different concentrations were added to each well (nine compound concentration gradients, one DMSO well, and one blank well; each compound concentration was plated in triplicate), and the final concentration of DMSO in each well was 0.1%. The plates were cultured in an incubator without CO2 at 37°C for 4 days. On the same day of compound addition, the T0 plate was detected using the CellTiter-Glo Kit, and the detected value was recorded as RLU0. After the culture was completed, 100 µL of detection solution (Cell Viability Assay, Promega) was added to each well. The plates were incubated at room temperature for 10 minutes with slow shaking. The chemiluminescence reading was read using a BMG microplate reader (PHERAstar FSX). The results were processed according to Formula (5) to calculate the proliferation inhibition rate of compounds at each concentration. Curve fitting was performed via a four-parameter logistic model using GraphPad Prism software, and the GI50 value (the concentration of the compound when the proliferation inhibition rate was 50%) was calculated. In the formula, RLUcompound is the readout of the drug-treated group, RLUcontrol is the average value of the compound vehicle control group, and RLUBlank is the average value of the blank control group. [formula] Table 3. Results of inhibitory activity of test compounds against cell proliferation

[2] = biological target: T2, WRN protein (AA N517-P1238, ICE) (Homo sapiens, UniProt Q14191); experiment: Assay for ATPase activity of WRN helicase (ADP-Glo); type: biochemical; conditions: inhibition of ATPase activity of WRN helicase; 0.3 nM WRN, 0.2 nM DNA substrate, 10 µM ATP
T2 construct: WRN protein (AA N517-P1238, ICE); purchased ICE
Description: The assay buffer working solution was as follows: 30 mM Tris pH 7.5 + 0.02% BSA + 2 mM MgCl2 + 50 mM NaCl + 0.1% Pluronic® F127 + 1 mM DTT. WRN protein (AA N517-P1238, ICE) was obtained through protein expression and purification in vitro. A single-stranded DNA substrate ([…]) was synthesized in vitro. 1 µL each of compounds at different concentrations, the WRN protein, and the DNA substrate, together with 2 µL of ATP, were added to a 384-well white plate. The working concentrations of the WRN protein, the DNA substrate, and the ATP were 0.3 nM, 0.2 nM, and 10 µM, respectively. The plate was incubated at room temperature for 20 minutes. After the incubation was completed, the detection was performed in accordance with the instructions of the ADP-Glo Assay Kit (Promega), and the chemiluminescence value was read.
as §1, with “1,” for “2,”, “model (log(inhibitor) vs. response -- Variable slope)” for “model”, “value” for “value (the concentration of the compound when the inhibition rate was 50%)”, “1.” for “2.”, “against ATPase activity of” for “against”, “helicase” for “helicase activity”

[3] = Mouse pharmacokinetic assay; type: in vivo, Balb/c mice; conditions: po, mouse plasma, i.g. (10 mg/kg)
Description: 4.1. Experimental animals: Male Balb/c mice, about 22 g, 6-8 weeks old, 6 mice/compound. The animals were purchased from CHENGDU DOSSY EXPERIMENTAL ANIMALS CO., LTD.
4.2. Experimental design: On the day of the experiment, the Balb/c mice were randomly grouped according to their body weights. The animals were fasted with water available for 12-14 h one day before the administration, and were fed 4 h after the administration. Table 4. Administration information
Vehicle for intravenous administration: 5% DMA + 5% Solutol + 90% Saline; and vehicle for intragastric administration: 5% DMSO + 95% (20% SBE-β-CD in Saline)
Before and after the administration, 0.03 ml of blood was taken from the orbit under isoflurane anesthesia and placed in an EDTAK2 centrifuge tube. The tube was centrifuged at 5000 rpm at 4°C for 10 min, and plasma was collected. The blood collection time points for the intravenous administration group and intragastric administration group were as follows: 0, 2 min, 5 min, 15 min, 30 min, 1 h, 2 h, 4 h, and 7 h. Before analysis and detection, all samples were stored at - 80°C. Table 5. Pharmacokinetic parameters of test compounds in mouse plasma

HT-29 cells = experiment: HT-29 cell proliferation inhibition assay (CellTiter-Glo); type: cell-based; conditions: Homo sapiens, 96 h, 4 days, read-out: Inhibitory activity against HT-29 cell proliferation IC50
Description: as §2, with “HT-29” for “SW48”, “DMEM” for “Leibovitz L15”, “with 5%” for “without”, “(4)” for “(5)”, “[formula]” for “[formula] Table 3. Results of inhibitory activity of test compounds against cell proliferation”

[4] = Beagle dog pharmacokinetic assay; type: in vivo, Beagle dogs; conditions: male, po; Beagle dog plasma, i.g. (3 mg/kg)
Description: 7.1. Experimental animals: Male Beagle dogs, about 8-13 kg, 6 Beagle dogs/compound.
7.2. Experimental method: On the day of the experiment, the Beagle dogs were randomly grouped according to their body weights. The animals were fasted with water available for 14-18 h one day before the administration, and were fed 4 h after the administration. The animals were administered according to Table 6. Table 6. Administration information
Note: Vehicle for intravenous administration: 5% DMA + 5% Solutol + 90% Saline; and vehicle for intragastric administration: 5% DMSO + 95% (20% SBE-β-CD in Saline) (DMA: dimethylacetamide; Solutol: polyethylene glycol-15-hydroxystearate; Saline: normal saline; and MC: methylcellulose)
Before and after the administration, 1 ml of blood was taken from the jugular veins or limb veins and placed in an EDTAK2 centrifuge tube. The tube was centrifuged at 5000 rpm at 4°C for 10 min, and plasma was collected. The blood collection time points for the intravenous administration group and intragastric administration group were as follows: 0, 5 min, 15 min, 30 min, 1 h, 2 h, 4 h, 6 h, 8 h, 10 h, 12 h, 24 h, and 48 h. Before analysis and detection, all samples were stored at -80°C. The samples were analyzed quantitatively by LC-MS/MS. Table 7. Pharmacokinetic parameters of test compounds in Beagle dog plasma

T1 sequence (Q14191 517-1238, stated change not applied): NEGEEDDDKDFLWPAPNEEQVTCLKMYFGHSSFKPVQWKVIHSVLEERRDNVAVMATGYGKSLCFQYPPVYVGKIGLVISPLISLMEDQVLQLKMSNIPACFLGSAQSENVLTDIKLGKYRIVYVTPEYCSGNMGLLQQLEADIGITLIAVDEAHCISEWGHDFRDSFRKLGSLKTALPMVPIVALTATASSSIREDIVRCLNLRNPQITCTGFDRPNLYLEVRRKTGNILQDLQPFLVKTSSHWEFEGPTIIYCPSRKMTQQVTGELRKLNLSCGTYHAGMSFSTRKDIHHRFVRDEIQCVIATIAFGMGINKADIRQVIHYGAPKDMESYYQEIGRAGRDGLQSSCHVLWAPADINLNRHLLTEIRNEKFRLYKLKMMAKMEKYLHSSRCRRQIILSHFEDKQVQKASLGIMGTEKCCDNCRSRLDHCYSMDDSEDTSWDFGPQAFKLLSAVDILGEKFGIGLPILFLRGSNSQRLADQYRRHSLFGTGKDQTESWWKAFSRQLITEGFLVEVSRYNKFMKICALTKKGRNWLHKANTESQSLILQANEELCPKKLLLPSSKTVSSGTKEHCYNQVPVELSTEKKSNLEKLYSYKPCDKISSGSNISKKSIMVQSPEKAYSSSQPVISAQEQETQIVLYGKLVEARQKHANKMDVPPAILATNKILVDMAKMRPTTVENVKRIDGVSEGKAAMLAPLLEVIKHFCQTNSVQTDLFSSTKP
T2 sequence (Q14191 517-1238): as the sequence (Q14191 517-1238, stated change not applied) above

Row | Structure (SMILES) | IC50 [1] | IC50 (SW48 cells) | further results
1 | Cc1ncnc(C(=O)N2CCN(c3c4n(c5nc(C6=CCOCC6)nn5c3=O)C(C(=O)Nc3ccc(C(F)(F)F)cc3Cl)CCC4)CC2)c1O (racemic) [Compound 1] | 20 to 100 nM | < 100 nM | 
2 | Cc1ncnc(C(=O)N2CCN(c3c4n(c5nc(C6=CCOCC6)nn5c3=O)C(C(=O)Nc3ccc(C(F)(F)F)c5c3CCC5)CCC4)CC2)c1O (racemic) [Compound 28] | < 20 nM |  | 
3 | O=C(Nc1ccc(C(F)(F)F)cc1Cl)C1CCCc2c(N3CCN(C(=O)c4ncccc4O)CC3)c(=O)n3nc(C4=CCOCC4)nc3n21 (single isomer, unassigned) [Compound 2-B] | < 20 nM | < 100 nM | IC50 [2]: < 20 nM
4 | Cc1ncnc(C(=O)N2CCN(c3c4n(c5nc(C6=CCOCC6)nn5c3=O)C(C(=O)Nc3ccc(C(F)(F)F)nc3Cl)CCC4)CC2)c1O (single isomer, unassigned) [Compound 3-B] | < 20 nM |  | 
5 | Cc1cc(C(F)(F)F)ccc1NC(=O)C1CCCc2c(N3CCN(C(=O)c4ncnc(C)c4O)CC3)c(=O)n3nc(C4=CCOCC4)nc3n21 (single isomer, unassigned) [Compound 5-B] | < 20 nM |  | 
6 | Cc1ncnc(C(=O)N2CCN(c3c4n(c5nc(C6=CCOCC6)nn5c3=O)C(C(=O)Nc3ccc(C(F)(F)F)cc3Cl)CC4)CC2)c1O (single isomer, unassigned) [Compound 6-B] | < 20 nM |  | 
7 | [2H]C1([2H])N(C(=O)c2ncnc(C)c2O)C([2H])([2H])C([2H])([2H])N(c2c3n(c4nc(C5=CCOCC5)nn4c2=O)C(C(=O)Nc2ccc(C(F)(F)F)cc2Cl)CCC3)C1([2H])[2H] (single isomer, unassigned) [Compound 7-B] | < 20 nM | < 100 nM | 
8 | Cc1ncnc(C(=O)N2CC3(CCN(c4c5n(c6nc(C7=CCOCC7)nn6c4=O)C(C(=O)Nc4ccc(C(F)(F)F)cc4Cl)CCC5)CC3)C2)c1O (single isomer, unassigned) [Compound 14-B] |  |  | AUC(0-t) ([3]; in vivo): 24200 ng·h/mL; half-life ([3]; in vivo): 5.41 h
9 | Cc1ncnc(C(=O)N2CCN(c3c4n(c5nc(C6=CCOCC6)nn5c3=O)C(C(=O)Nc3ccc(C(F)(F)F)cc3F)CCC4)CC2)c1O (single isomer, unassigned) [Compound 15-B] | < 20 nM |  | 
10 | Cc1ncnc(C(=O)N2CCN(c3c4n(c5nc(C6=CCOCC6)nn5c3=O)C(C(=O)Nc3ccc(C(F)(F)F)cc3Cl)CCC4)[C@@H](C)C2)c1O (single isomer, unassigned) [Compound 26-A] | < 20 nM | < 100 nM | IC50 (HT-29 cells): ≥ 10000 nM
11 | CCc1c(N2CCN(C(=O)c3ncnc(C)c3O)CC2)c(=O)n2nc(C3=CCOCC3)nc2n1CC(=O)Nc1ccc(C(F)(F)F)cc1Cl [HRO761, reference compound] |  |  | AUC(0-t) [4]: 10800 ng·h/mL; AUC(0-t) ([3]; male, Balb/c): 9210 ng·h/mL; half-life ([3]; male, Balb/c): 2.32 h; bioavailability ([3]; male, Balb/c, read-out: F (%)): 74.1%
